The results in this text go back to US9371265B2, “Compositions and methods related to inhibitors of JAK kinase” (EP PHARMA, INC., priority 2012, dated 2016).

One assay deals with PAK2 (Homo sapiens, UniProt Q13177). In words: Kinase panel: PAK2. The conditions noted are these: 10 μM EP009. The class given is biochemical. The method, then: (§1) Achieving JAK3 selectivity remains a significant challenge in the development of new small molecules for the treatment of cancer and immune-derived diseases. As such, the inventors employed cell-based screening assays of small-molecule libraries based upon the chemical scaffold of the established JAK3 inhibitor NC1153 (Stepkowski et al., J Immunol. (2005), 175(7):4236-4246) EP009 (FIG. 2A) was selected as a lead compound due to improved intrinsic stability (>95% purity in various solvents at 37° C. for 24 hours; FIG. 3) and high-degree of JAK3 selectivity. To test JAK3 versus JAK2 specificity of EP009, the IL-2/JAK3-dependent Kit225, and IL-3/JAK2-dependent BaF/3 cell lines were used. Kit225 and BaF/3 cells growing in the presence of IL-2 or IL-3, respectively, were treated with ascending concentrations of EP009 for 12 hours and cellular JAK3 and JAK2 tyrosine phosphorylation levels detected by Western blot analysis (FIGS. 2B and 2C). Following densitometric analysis, EP009 was determined to dose-dependently reduce IL-2-mediated JAK3 tyrosine phosphorylation with a cellular 50% inhibitory concentration (IC50) between 10 and 20 μM (FIG. 2B). […] To globally evaluate specificity, the inhibitory activity of EP009 was measured against a panel of protein kinases distributed throughout the kinome using the scanEDGE profiling service (KINOMEscan). […]
Sequence of PAK2 (Q13177 whole entry): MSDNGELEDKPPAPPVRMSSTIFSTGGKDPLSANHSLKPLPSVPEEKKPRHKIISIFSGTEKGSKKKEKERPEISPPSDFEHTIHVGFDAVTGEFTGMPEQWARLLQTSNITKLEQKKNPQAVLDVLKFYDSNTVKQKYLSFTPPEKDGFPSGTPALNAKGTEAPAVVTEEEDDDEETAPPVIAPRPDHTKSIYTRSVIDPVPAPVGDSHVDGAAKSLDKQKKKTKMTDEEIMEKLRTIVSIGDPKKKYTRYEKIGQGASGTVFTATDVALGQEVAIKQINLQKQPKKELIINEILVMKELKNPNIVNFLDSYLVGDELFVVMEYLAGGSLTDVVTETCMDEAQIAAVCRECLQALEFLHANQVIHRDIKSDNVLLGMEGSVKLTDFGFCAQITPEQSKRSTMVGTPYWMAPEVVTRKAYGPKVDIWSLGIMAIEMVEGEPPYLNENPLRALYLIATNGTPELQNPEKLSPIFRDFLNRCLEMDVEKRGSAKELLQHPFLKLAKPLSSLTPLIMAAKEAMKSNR

A further assay concerns the target PLK3 (Homo sapiens, UniProt Q9H4B4). In words: Kinase panel: PLK3. The class given is biochemical. The conditions noted are these: 10 μM EP009. Here is the method: as §1
The target in a further assay is KIT(D816V) (Homo sapiens, UniProt P10721, D816V). Kind of assay: Kinase panel: KIT(D816V). It is filed as biochemical. The conditions noted are these: 10 μM EP009. The method, then: as §1
Sequence of KIT(D816V) (P10721 26-976 D816V): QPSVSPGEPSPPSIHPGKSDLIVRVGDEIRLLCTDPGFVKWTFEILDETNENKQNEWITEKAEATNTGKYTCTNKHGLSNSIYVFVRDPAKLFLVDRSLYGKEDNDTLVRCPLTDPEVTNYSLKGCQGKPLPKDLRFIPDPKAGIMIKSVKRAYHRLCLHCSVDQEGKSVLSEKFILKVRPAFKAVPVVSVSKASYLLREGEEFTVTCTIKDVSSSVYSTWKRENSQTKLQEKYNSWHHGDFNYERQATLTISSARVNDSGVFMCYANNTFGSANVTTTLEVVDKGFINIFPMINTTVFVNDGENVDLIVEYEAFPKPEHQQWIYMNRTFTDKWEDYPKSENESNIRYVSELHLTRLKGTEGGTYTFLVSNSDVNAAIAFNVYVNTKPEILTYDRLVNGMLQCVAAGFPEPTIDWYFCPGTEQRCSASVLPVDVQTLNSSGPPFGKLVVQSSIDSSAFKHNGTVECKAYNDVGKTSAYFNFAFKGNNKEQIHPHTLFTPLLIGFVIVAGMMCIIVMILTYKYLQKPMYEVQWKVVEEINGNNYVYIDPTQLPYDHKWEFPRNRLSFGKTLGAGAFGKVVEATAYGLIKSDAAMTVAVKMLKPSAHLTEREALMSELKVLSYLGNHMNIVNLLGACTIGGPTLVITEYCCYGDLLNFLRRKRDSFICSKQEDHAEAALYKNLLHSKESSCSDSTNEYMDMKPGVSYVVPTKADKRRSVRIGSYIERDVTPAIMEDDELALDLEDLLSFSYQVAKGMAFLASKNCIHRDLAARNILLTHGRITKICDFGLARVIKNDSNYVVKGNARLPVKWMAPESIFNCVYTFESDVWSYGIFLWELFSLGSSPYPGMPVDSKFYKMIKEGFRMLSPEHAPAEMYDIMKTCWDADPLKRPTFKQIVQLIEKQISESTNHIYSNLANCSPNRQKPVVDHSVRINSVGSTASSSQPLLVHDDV
Another assay addresses ULK2 (Homo sapiens, UniProt Q8IYT8). In words: Kinase panel: ULK2. The class given is biochemical. The conditions noted are these: 10 μM EP009. Here is the method:
as §1

In another assay the target is JAK3 (Homo sapiens, UniProt P52333). Kind of assay: IL-2-mediated JAK3 tyrosine phosphorylation in Kit225 cells (IP/Western blot, densitometry). The class given is cell-based. Details: cellular JAK3 and JAK2 tyrosine phosphorylation levels detected by Western blot analysis; endogenous in cells; host or cells: Kit225. The conditions noted are these: 12 hours, densitometric analysis, read-out: cellular IC50, IL-2-mediated JAK3 tyrosine phosphorylation. Here is the method:
FIGS. 2A-2F. Selective inhibition of JAK3 by EP009 results in loss of JAK3-dependent tumor cell line viability with no detectable off-target effects in key cell types. (A) Chemical structure of EP009 (M.W. 224.34). (B) Kit225 or (C) BaF/3 cells cultured in the presence of IL-2 or IL-3, respectively, were treated with vehicle (PBS; lane a) or increasing amounts of EP009 (0-50 μM; lanes b-h) for 12 hours. Cells were then lysed, clarified, and immunoprecipitated (IP) with anti-JAK3 (α-JAK3) or anti-JAK2 (α-JAK2), and subjected to Western blot (WB) analysis with anti-phosphotyrosine (α-pY). Blots were stripped and reprobed with corresponding antibody to verify equivalent protein loading. […] (E) Kit225 or BaF/3 cells were cultured with increasing amounts of EP009 (0-10 μM) for 72 hours and cell viability measured with the MTS tetrazolium salt assay. Values represent mean absorbance (OD490-OD650 nm) normalized to vehicle (PBS) treated control cells, while error bars represent the standard deviation (n=3). (F) HEK293, HEPG2, or naïve primary human PBMCs were cultured with increasing amounts of EP009 (0-10 μM) for 72 hours and cell viability measured with the MTS tetrazolium salt assay. Values represent mean absorbance (OD490-OD650 nm) normalized to vehicle (PBS) treated control cells, while error bars represent the standard deviation (n=3). […]
(In general: In western blotting, separated proteins are transferred to a membrane and probed.)

Sequence of JAK3 (P52333 whole entry): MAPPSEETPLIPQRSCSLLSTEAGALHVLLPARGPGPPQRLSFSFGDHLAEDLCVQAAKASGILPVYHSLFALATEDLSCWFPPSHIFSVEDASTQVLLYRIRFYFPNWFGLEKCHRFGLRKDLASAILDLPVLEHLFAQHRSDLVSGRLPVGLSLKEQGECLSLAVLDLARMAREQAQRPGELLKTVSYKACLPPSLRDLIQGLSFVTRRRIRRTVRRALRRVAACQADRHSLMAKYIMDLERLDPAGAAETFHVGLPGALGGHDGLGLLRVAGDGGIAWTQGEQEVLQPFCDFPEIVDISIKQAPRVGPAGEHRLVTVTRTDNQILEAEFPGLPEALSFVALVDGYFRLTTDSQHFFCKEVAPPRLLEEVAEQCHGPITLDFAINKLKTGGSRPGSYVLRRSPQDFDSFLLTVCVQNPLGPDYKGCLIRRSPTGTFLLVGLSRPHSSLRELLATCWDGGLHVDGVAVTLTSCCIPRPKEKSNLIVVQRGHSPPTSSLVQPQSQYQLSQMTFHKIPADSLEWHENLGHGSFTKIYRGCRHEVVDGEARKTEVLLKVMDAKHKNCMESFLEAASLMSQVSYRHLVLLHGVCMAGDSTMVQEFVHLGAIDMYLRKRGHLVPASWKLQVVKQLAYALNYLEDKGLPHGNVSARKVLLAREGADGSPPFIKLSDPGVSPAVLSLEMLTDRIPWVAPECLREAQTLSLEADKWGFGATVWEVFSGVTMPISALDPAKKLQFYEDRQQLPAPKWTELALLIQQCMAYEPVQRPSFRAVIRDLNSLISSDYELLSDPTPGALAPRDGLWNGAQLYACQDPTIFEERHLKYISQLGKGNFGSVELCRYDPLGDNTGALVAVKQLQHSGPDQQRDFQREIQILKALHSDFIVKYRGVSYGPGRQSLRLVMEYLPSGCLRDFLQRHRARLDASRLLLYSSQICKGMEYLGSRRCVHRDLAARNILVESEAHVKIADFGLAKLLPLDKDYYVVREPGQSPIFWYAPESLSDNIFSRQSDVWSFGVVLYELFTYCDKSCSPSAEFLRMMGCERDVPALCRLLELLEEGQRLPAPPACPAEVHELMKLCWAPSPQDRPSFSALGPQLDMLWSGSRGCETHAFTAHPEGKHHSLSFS
Sequence of PLK3 (Q9H4B4 whole entry): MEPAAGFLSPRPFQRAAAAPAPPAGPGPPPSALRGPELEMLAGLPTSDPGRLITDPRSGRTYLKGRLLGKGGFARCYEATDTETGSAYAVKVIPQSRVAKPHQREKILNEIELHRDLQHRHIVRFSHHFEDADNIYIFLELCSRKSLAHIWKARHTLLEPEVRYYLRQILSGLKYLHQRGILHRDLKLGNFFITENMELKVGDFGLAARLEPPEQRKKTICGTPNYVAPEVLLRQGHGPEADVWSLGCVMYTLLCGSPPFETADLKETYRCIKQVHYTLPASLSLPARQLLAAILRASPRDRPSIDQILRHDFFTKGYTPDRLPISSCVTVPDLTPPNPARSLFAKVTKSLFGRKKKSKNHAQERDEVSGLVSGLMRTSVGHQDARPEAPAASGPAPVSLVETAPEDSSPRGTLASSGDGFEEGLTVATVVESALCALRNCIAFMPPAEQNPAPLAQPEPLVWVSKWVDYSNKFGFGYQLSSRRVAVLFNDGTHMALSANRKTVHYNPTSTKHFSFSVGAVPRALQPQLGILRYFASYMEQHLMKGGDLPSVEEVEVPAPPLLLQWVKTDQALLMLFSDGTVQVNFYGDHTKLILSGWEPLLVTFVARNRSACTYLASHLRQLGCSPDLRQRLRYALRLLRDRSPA
Sequence of ULK2 (Q8IYT8 whole entry): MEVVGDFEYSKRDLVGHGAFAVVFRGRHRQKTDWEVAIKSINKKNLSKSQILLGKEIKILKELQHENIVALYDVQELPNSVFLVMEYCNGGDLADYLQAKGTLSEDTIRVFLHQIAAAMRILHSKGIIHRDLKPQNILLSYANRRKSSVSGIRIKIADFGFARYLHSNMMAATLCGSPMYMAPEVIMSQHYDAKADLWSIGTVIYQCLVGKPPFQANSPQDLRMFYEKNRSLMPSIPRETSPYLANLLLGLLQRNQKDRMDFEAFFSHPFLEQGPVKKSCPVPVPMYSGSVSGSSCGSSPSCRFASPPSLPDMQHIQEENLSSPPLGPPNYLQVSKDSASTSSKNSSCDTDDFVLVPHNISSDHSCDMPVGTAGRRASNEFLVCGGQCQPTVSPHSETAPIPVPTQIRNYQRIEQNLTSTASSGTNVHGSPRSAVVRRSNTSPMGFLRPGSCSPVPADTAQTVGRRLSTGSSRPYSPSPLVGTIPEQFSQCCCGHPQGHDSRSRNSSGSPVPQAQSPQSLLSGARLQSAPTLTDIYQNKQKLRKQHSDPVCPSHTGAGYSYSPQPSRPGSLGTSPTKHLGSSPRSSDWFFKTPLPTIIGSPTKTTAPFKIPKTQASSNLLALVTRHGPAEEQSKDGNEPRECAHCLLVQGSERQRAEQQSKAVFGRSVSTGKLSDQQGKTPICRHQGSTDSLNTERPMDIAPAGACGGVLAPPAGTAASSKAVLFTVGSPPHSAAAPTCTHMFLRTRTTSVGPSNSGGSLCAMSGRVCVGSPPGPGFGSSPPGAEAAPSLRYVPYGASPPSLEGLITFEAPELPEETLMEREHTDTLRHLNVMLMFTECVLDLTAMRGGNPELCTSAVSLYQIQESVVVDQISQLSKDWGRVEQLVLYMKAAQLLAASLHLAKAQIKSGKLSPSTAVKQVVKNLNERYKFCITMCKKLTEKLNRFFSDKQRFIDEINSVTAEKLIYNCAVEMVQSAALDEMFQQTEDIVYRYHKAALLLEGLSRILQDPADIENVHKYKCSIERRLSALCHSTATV

Regarding `C=C1CCCCCCCCCC(CO)C1=O` (centres unmarked) [EP009, 2-(Hydroxymethyl)-12-methylenecyclododecanone], the “Kinase Activity (% of Control)” value at PAK2 is recorded as 100 % of Control; on PLK3 it was 92 % of Control; at KIT(D816V), 100 % of Control; at ULK2 it was 58 % of Control. On JAK3, the IC50 – broadly, the concentration that inhibits the measured activity by half – lay within 10 to 20 µM.
